Where two headings read alike, the source gives them in different places.
Tested on: M. tuberculosis H37Rv-GFP
Test: microbe, parasite or virus in culture
Assay type: cell-based, Mycobacterium tuberculosis
Details: Mycobacterium tuberculosis, H37RV, Macrophage
[1] = confirmation, 20 uM, intracellular, read-out: QIM Confirm % Inhibition 20 uM
[2] = primary screen, 20 μM, intracellular, read-out: Primary QIM % Inhibition
[3] = read-out: Primary QIM % Inhibition
[4] = read-out: QIM Confirm % Inhibition 20 uM

COc1ccc(/C=C2/c3ccccc3-c3ccc(C(=O)CCCCN4CCCCC4)cc32)cc1 [IPK 000 198 56]
inhibition at 20 µM [1]: 64.7%
inhibition at 20 µM [2]: 15.1%

O=C(Nc1ccc(NC(=O)c2cccnc2)cc1)C1=CCCS1 [IPK 000 199 70]
inhibition at 20 µM [1]: 69.6%
inhibition at 20 µM [2]: 70.5%

O=C(CSc1ccc(Nc2ccc(Cl)cc2)nn1)Nc1ccc(Cl)cc1 [IPK 000 200 16]
inhibition at 20 µM [1]: 76.8%
inhibition at 20 µM [2]: 73.3%

Cc1ccc(C)n1-c1ccc(C(=O)O)c(O)c1 [IPK 000 200 47]
inhibition at 20 µM [1]: 19.1%
inhibition at 20 µM [2]: 6.3%

O=C(Nc1cccc(C(F)(F)F)c1)c1cccs1 [IPK 000 202 08]
inhibition at 20 µM [1]: 67.4%
inhibition at 20 µM [2]: 65.7%

Cc1ccc(NC(=O)c2ccc(F)cc2)cc1Cl [IPK 000 205 22]
inhibition at 20 µM [1]: 69.7%
inhibition at 20 µM [2]: 85.1%

Cc1ccc(CNC(=O)c2ccc(F)cc2)cc1 [IPK 000 205 42]
inhibition at 20 µM [1]: 69.3%
inhibition at 20 µM [2]: 71.5%

CCCCNC(=O)c1ccc2c(c1)OCO2 [IPK 000 208 53]
inhibition at 20 µM [1]: 23.3%
inhibition at 20 µM [2]: 71.6%

Cc1cccc(C(=O)NCCC(C)C)c1 [IPK 000 210 74]
inhibition at 20 µM [1]: 20.2%
inhibition at 20 µM [2]: 76.4%

CC(C)CCNC(=O)c1cccc(Cl)c1 [IPK 000 210 79]
inhibition at 20 µM [1]: 28.7%
inhibition at 20 µM [2]: 77.2%

CCOc1ccc(C(=O)NCCC(C)C)cc1 [IPK 000 210 83]
inhibition at 20 µM [1]: 48.2%
inhibition at 20 µM [2]: 70.4%

Cc1ccc(/C=N/NC(=O)c2ccncc2)o1 [IPK 000 219 26]
inhibition at 20 µM [1]: 51.4%
inhibition at 20 µM [2]: 91.1%

O=C(N/N=C/c1ccccc1)c1ccncc1 [IPK 000 219 27]
inhibition at 20 µM [1]: 57.4%
inhibition at 20 µM [2]: 96.9%

COc1ccc(/C=N/NC(=O)c2ccncc2)cc1 [IPK 000 219 28]
inhibition at 20 µM [1]: 46.2%
inhibition at 20 µM [2]: 106%

Cc1ccsc1/C=N/NC(=O)Cc1cc(=O)[nH][nH]1 [IPK 000 219 30]
inhibition at 20 µM [1]: 93%
inhibition at 20 µM [2]: 104%

Cc1ccc(-c2c(CN3CCCCC3)c(N)nc3ccccc23)cc1 [IPK 000 222 00]
inhibition at 20 µM [1]: 86.2%
inhibition at 20 µM [2]: 74.4%

Nc1nc2ccccc2c(-c2cccc3ccccc23)c1CN1CC1 [IPK 000 222 04]
inhibition at 20 µM [1]: 85.8%
inhibition at 20 µM [2]: 65.4%

O=[N+]([O-])c1ccc(/C=N/N(CCO)C2=NS(=O)(=O)c3ccccc32)o1 [IPK 000 222 32]
inhibition at 20 µM [1]: 63.2%
inhibition at 20 µM [2]: 16.2%

CCc1ccc(NC(=O)C23CC4CC(CC(C4)C2)C3)cc1 [IPK 000 228 46]
inhibition at 20 µM [1]: 37.8%
inhibition at 20 µM [2]: 22.5%

Cc1ccc(C(=O)NCCSC2CCCCC2)cc1[N+](=O)[O-] [IPK 000 229 50]
inhibition at 20 µM [1]: 83.6%
inhibition at 20 µM [2]: 60.1%

C#C/C(=C/c1ccc(-c2ccc(N3CCCCC3)c([N+](=O)[O-])c2)o1)C(=O)OCC [IPK 000 229 72]
inhibition at 20 µM [1]: 90.7%
inhibition at 20 µM [2]: 69.4%

CC12CC3CC(C)(C1)CC(NC(=O)c1ccc(N4CCCC4)c([N+](=O)[O-])c1)(C3)C2 [IPK 000 230 02]
inhibition at 20 µM [3]: -7.7%
inhibition at 20 µM [4]: 40.5%

CCOc1ccc(NCC(=O)n2nc(C)cc2C)cc1 [IPK 000 234 61]
inhibition at 20 µM [1]: -1.6%
inhibition at 20 µM [2]: -61%

O=C(NCCc1ccccc1)c1ccc([N+](=O)[O-])o1 [IPK 000 235 09]
inhibition at 20 µM [1]: 36.4%
inhibition at 20 µM [2]: 46.2%

COc1ccccc1N1CCN(C(=O)c2ccc([N+](=O)[O-])o2)CC1 [IPK 000 235 12]
inhibition at 20 µM [1]: 26.9%
inhibition at 20 µM [2]: -67.9%

C/C(=C\c1ccc2c(c1)OCO2)[N+](=O)[O-] [IPK 000 240 37]
inhibition at 20 µM [3]: 17%
inhibition at 20 µM [4]: 67.5%

O=C(O)c1cccc2c1NC(c1ccccc1[N+](=O)[O-])C1Cc3ccccc3C21 (centres unmarked) [IPK 000 241 72]
inhibition at 20 µM [1]: 28%
inhibition at 20 µM [2]: -43.3%

CS(=O)(=O)c1nnnn1-c1ccccc1 [IPK 000 244 12]
inhibition at 20 µM [1]: 11.8%
inhibition at 20 µM [2]: 29.9%
